Experimental data: ChEMBL document CHEMBL4020814, “Synthesis, Binding Mode, and Antihyperglycemic Activity of Potent and Selective (5-Imidazol-2-yl-4-phenylpyrimidin-2-yl)[2-(2-pyridylamino)ethyl]amine Inhibitors of Glycogen Synthase Kinase 3” (J Med Chem, 2017)

Key:
[1] = Stability in dog liver microsomes assessed as half life; assay type: ADME, Canis lupus familiaris, microsome
[2] = Inhibition of human GSK3 using biotin-CREB peptide substrate after 1 hr by scintillation counting method
[3] = Stability in rat liver microsomes assessed as half life; assay type: ADME, microsome
[4] = Inhibition of GSK3 expressed in CHO-IR cells expressing human insulin receptor assessed as glycogen synthase activation after 30 mins by filter paper assay; assay type: cell-based, Cavia porcellus

half-life [1] | IC50 [2] | half-life [3] | EC50 [4] | Structure (SMILES)
> 30 min | 51 nM | > 30 min | 5920 nM | Nc1nc(NCCNc2ncc(-c3ncc[nH]3)c(-c3ccc(C(F)(F)F)cc3)n2)ccc1[N+](=O)[O-]
> 30 min | 2860 nM | > 30 min | – | Clc1ccc(-c2nc(NCCNc3ccccn3)ncc2-c2ncc[nH]2)c(Cl)c1
> 30 min | 13 nM | > 30 min | 2280 nM | Nc1nc(NCCNc2ncc(-c3ncc[nH]3)c(-c3cc(F)c(Cl)cc3Cl)n2)ccc1[N+](=O)[O-]
> 30 min | 7 nM | > 30 min | 420 nM | Nc1nc(NCCNc2ncc(-c3ncc[nH]3)c(-c3ccc(F)cc3Cl)n2)ccc1[N+](=O)[O-]
> 30 min | 7 nM | > 30 min | 240 nM | Nc1nc(NCCNc2ncc(-c3ncc[nH]3)c(-c3ccccc3Br)n2)ccc1[N+](=O)[O-]
> 30 min | 38 nM | > 30 min | 6880 nM | Nc1nc(NCCNc2ncc(-c3ncc[nH]3)c(-c3cc(F)c(F)cc3F)n2)ccc1[N+](=O)[O-]
> 30 min | 4 nM | > 30 min | 50 nM | Cc1ccc(-c2nc(NCCNc3ccc([N+](=O)[O-])c(N)n3)ncc2-c2ncc[nH]2)c(Br)c1
> 30 min | 32 nM | > 30 min | – | Nc1nc(NCCNc2ncc(-c3ncc[nH]3)c(-c3cc(F)ccc3Cl)n2)ccc1[N+](=O)[O-]
> 30 min | 5 nM | > 30 min | 1020 nM | Nc1nc(NCCNc2ncc(-c3ncc[nH]3)c(-c3ccc(Cl)cc3F)n2)ccc1[N+](=O)[O-]
> 30 min | 47 nM | > 30 min | 3000 nM | Nc1nc(NCCNc2ncc(-c3ncc[nH]3)c(-c3cc(F)ccc3F)n2)ccc1[N+](=O)[O-]
> 30 min | 249 nM | > 30 min | – | COc1cc(Cl)ccc1-c1nc(NCCNc2ccc([N+](=O)[O-])c(N)n2)ncc1-c1ncc[nH]1
> 30 min | 12 nM | > 30 min | 730 nM | Nc1nc(NCCNc2ncc(-c3ncc[nH]3)c(-c3ccccc3Cl)n2)ccc1[N+](=O)[O-]
> 30 min | 4 nM | > 30 min | 220 nM | Nc1nc(NCCNc2ncc(-c3ncc[nH]3)c(-c3ccc(F)cc3Br)n2)ccc1[N+](=O)[O-]
> 30 min | 35 nM | > 30 min | 1240 nM | FC(F)(F)c1ccc(NCCNc2ncc(-c3ncc[nH]3)c(-c3ccc(Cl)cc3Cl)n2)nc1
– | 24 nM | – | 1240 nM | O=[N+]([O-])c1ccc(NCCNc2ncc(-n3ccnc3)c(-c3ccccc3Cl)n2)nc1
– | 27 nM | – | 3000 nM | CNC(=O)Nc1cnc(NCCNc2ccc([N+](=O)[O-])c(N)n2)nc1-c1ccc(Cl)cc1Cl
– | 40 nM | – | 1700 nM | CCOC(=O)c1c(CC)nc(NCCNc2ccc([N+](=O)[O-])cn2)nc1-c1ccc(C#N)cc1
– | 32 nM | – | 110 nM | O=[N+]([O-])c1ccc(NCCN(CCN2CCCCCC2)c2ncc(-n3ccnc3)c(-c3ccc(Cl)cc3Cl)n2)nc1
– | 61 nM | – | 8700 nM | CN(C)C(=O)c1cnc(NCCNc2ccc([N+](=O)[O-])cn2)nc1-c1ccc(C#N)cc1
– | 24 nM | – | 17700 nM | Nc1nc(NCCNc2ncc(NC(=O)CCCN3CCOCC3)c(-c3ccc(Cl)cc3Cl)n2)ccc1[N+](=O)[O-]
> 30 min | 5 nM | > 30 min | 500 nM | Nc1nc(NCCNc2ncc(-c3ncc[nH]3)c(-c3ccc(Br)cc3F)n2)ccc1[N+](=O)[O-]

half-life [1] | IC50 [2] | half-life [3] | EC50 [4] | Structure (SMILES)
– | 22 nM | – | 80 nM | CN(CCNc1ccc([N+](=O)[O-])cn1)c1ncc(-n2ccnc2)c(-c2ccc(Cl)cc2Cl)n1
– | 6 nM | – | 300 nM | O=[N+]([O-])c1ccc(NCCNc2ncc(-n3ccnc3)c(-c3ccc(Cl)cc3Cl)n2)nc1
– | 29 nM | – | > 10000 nM | N#Cc1ccc(-c2nc(NCCNc3ccc([N+](=O)[O-])cn3)ncc2C(=O)NCCO)cc1
> 30 min | 9 nM | > 30 min | 5650 nM | Nc1nc(NCCNc2ncc(-c3ncc[nH]3)c(-c3ccc(F)cc3F)n2)ccc1[N+](=O)[O-]
– | 40 nM | – | 2500 nM | O=[N+]([O-])c1ccc(NCCNc2ncc(-n3ccnc3)c(-c3ccc(C(F)(F)F)cc3)n2)nc1
– | 223 nM | – | 3840 nM | FC(F)(F)c1ccc(NCCNc2ncc(-n3ccnc3)c(-c3ccc(Cl)cc3Cl)n2)nc1
> 30 min | 7 nM | > 30 min | > 10000 nM | N#Cc1ccc(-c2nc(NCCNc3ccc([N+](=O)[O-])c(N)n3)ncc2-c2ncc[nH]2)cc1
– | 16 nM | – | 3000 nM | Nc1nc(NCCNc2ncc(NC(=O)NCCN3CCOCC3)c(-c3ccc(Cl)cc3Cl)n2)ccc1[N+](=O)[O-]
– | 15 nM | – | 5410 nM | Nc1nc(NCCNc2ncc(N3CCNCC3=O)c(-c3ccc(Cl)cc3Cl)n2)ccc1[N+](=O)[O-]
– | 21 nM | – | 90 nM | CC(C)c1c[nH]c(-c2cnc(NCCNc3ccc([N+](=O)[O-])c(N)n3)nc2-c2ccc(Cl)cc2Cl)n1
> 30 min | 19 nM | > 30 min | 2190 nM | Nc1nc(NCCNc2ncc(-c3ncc[nH]3)c(-c3cc(F)c(Cl)cc3F)n2)ccc1[N+](=O)[O-]
– | 34 nM | – | 170 nM | Nc1nc(NCCNc2ncc(-c3nc(C(F)(F)F)c[nH]3)c(-c3ccc(Cl)cc3Cl)n2)ccc1[N+](=O)[O-]
– | 29 nM | – | > 10000 nM | N#Cc1ccc(-c2nc(NCCNc3ccc([N+](=O)[O-])cn3)ncc2C(N)=O)cc1
– | 35 nM | – | 350 nM | CN(C)CCN(CCNc1ccc([N+](=O)[O-])cn1)c1ncc(-n2ccnc2)c(-c2ccc(Cl)cc2Cl)n1
– | 31 nM | – | 10000 nM | O=[N+]([O-])c1ccc(NCCNc2ncc(-c3nnn[nH]3)c(-c3ccc(Cl)cc3Cl)n2)nc1
– | 27 nM | – | 110 nM | CN1CCCC1CCN(CCNc1ccc([N+](=O)[O-])cn1)c1ncc(-n2ccnc2)c(-c2ccc(Cl)cc2Cl)n1 (stereo unspecified)
– | 140 nM | – | > 10000 nM | CN(C)CCN(C)C(=O)c1cnc(NCCNc2ccc([N+](=O)[O-])cn2)nc1-c1ccc(C#N)cc1
– | 6 nM | – | 190 nM | CC(=O)Nc1cnc(NCCNc2ccc([N+](=O)[O-])c(N)n2)nc1-c1ccc(Cl)cc1Cl
> 30 min | 4 nM | > 30 min | 430 nM | Nc1nc(NCCNc2ncc(-c3ncc[nH]3)c(-c3ccc(Br)cc3Cl)n2)ccc1[N+](=O)[O-]
– | 56 nM | – | 1010 nM | N#Cc1ccc(NCCNc2ncc(-n3ccnc3)c(-c3ccc(Cl)cc3Cl)n2)nc1N
– | 27 nM | – | 1070 nM | CC(C)(C)c1c[nH]c(-c2cnc(NCCNc3ccc([N+](=O)[O-])c(N)n3)nc2-c2ccc(Cl)cc2Cl)n1

half-life [1] | IC50 [2] | half-life [3] | EC50 [4] | Structure (SMILES)
> 30 min | 31 nM | > 30 min | 2500 nM | Nc1nc(NCCNc2ncc(-c3ncc[nH]3)c(-c3ccc(Cl)cc3)n2)ccc1[N+](=O)[O-]
– | 25 nM | – | 670 nM | CN(C)CC(=O)Nc1cnc(NCCNc2ccc([N+](=O)[O-])c(N)n2)nc1-c1ccc(Cl)cc1Cl
– | 417 nM | – | > 10000 nM | N#Cc1ccc(-c2nc(NCCNc3ccc([N+](=O)[O-])cn3)ncc2C(=O)N2CCNCC2)cc1
– | 29 nM | – | 6100 nM | O=[N+]([O-])c1ccc(NCCNc2ncc(-n3ccnc3)c(-c3ccc(N4CCOCC4)cc3)n2)nc1
– | 1 nM | – | 130 nM | Nc1nc(NCCNc2ncc(-c3nc(-c4ccccc4)c[nH]3)c(-c3ccc(Cl)cc3Cl)n2)ccc1[N+](=O)[O-]
– | 14 nM | – | 860 nM | CC(C)[C@H](N)C(=O)Nc1cnc(NCCNc2ccc([N+](=O)[O-])c(N)n2)nc1-c1ccc(Cl)cc1Cl
– | 22 nM | – | 320 nM | Cc1nc(-c2cnc(NCCNc3ccc([N+](=O)[O-])c(N)n3)nc2-c2ccc(Cl)cc2Cl)n(C)c1C
– | 19 nM | – | 1000 nM | N#Cc1ccc(-c2nc(NCCNc3ccc([N+](=O)[O-])cn3)ncc2-n2cncn2)cc1
– | 120 nM | – | 9600 nM | CCOC(=O)c1c(CC)nc(NCCNc2ccc([N+](=O)[O-])cn2)nc1-c1ccc(C(N)=O)cc1
– | 51 nM | – | 8300 nM | N#Cc1ccc(-c2nc(NCCNc3ccc([N+](=O)[O-])cn3)ncc2C(=O)OCCO)cc1
– | 110 nM | – | > 10000 nM | CC(C)(C)NC(=O)c1cnc(NCCNc2ccc([N+](=O)[O-])cn2)nc1-c1ccc(C#N)cc1
– | 1 nM | – | 250 nM | Cn1ccnc1-c1cnc(NCCNc2ccc([N+](=O)[O-])c(N)n2)nc1-c1ccc(Cl)cc1Cl
– | 9 nM | – | 100 nM | CCc1ccc(-c2nc(NCCNc3ccc([N+](=O)[O-])cn3)ncc2-n2ccnc2)cc1
– | 9 nM | – | 390 nM | CS(=O)(=O)Nc1cnc(NCCNc2ccc([N+](=O)[O-])c(N)n2)nc1-c1ccc(Cl)cc1Cl
– | 35 nM | – | > 10000 nM | N#Cc1ccc(-c2nc(NCCNc3ccc([N+](=O)[O-])cn3)ncc2C(=O)O)cc1
– | 15 nM | – | 280 nM | O=[N+]([O-])c1ccc(NCCNc2ncc(-n3cnnn3)c(-c3ccc(Cl)cc3Cl)n2)nc1
– | 201 nM | – | 3900 nM | Clc1ccc(-c2nc(NCCNc3cc(Cl)ncn3)ncc2-n2ccnc2)c(Cl)c1
– | 236 nM | – | 9440 nM | N#Cc1cnc(NCCNc2ncc(-n3ccnc3)c(-c3ccc(Cl)cc3Cl)n2)nc1N
– | 26 nM | – | 370 nM | O=[N+]([O-])c1ccc(NCCN(CCN2CCCC2)c2ncc(-n3ccnc3)c(-c3ccc(Cl)cc3Cl)n2)nc1
– | 18 nM | – | 510 nM | Nc1nc(NCCNc2ncc(N3CCNCC3)c(-c3ccc(Cl)cc3Cl)n2)ccc1[N+](=O)[O-]
